The source of these data is paper PMC5654082 (Malaria Journal, 2017).

For data set [1], the system named is OCT1. Also on record: method as in PMID 25914645. Conditions: read-out: Absolute IC50 for OCT1; cited from earlier work.
For data set [2] the following is noted: cited from earlier work.
The conditions of data set [3]: cited from earlier work. This is another data set of the same source.
Substrate in data set [4]: [H]/N=C(\N/C(=N/[H])Nc1ccc(Cl)cc1)NC(C)C
Kind of data set: OCT2-mediated cellular import in transduced HEK293 cells (LC-MS/MS). The class given is cell-based, human. Conditions: other: 1 min incubation, 37 °C, 2.0–16 µM, pH 7.4. The protocol:
HEK293 cells were modified to transiently express (a combination of) human OCT1, OCT2, MATE1, MATE2-K, or eYFP. Briefly, cDNA of the respective genes was cloned downstream of a CMV promoter into a baculovirus, of which passage three was used to transduce HEK293 cells. These cells were seeded in poly-D-lysine coated 24- or 96-wells plates and grown in a 37 °C incubator at 5% CO2. Growth was initiated at ~ 25% confluency using 375 or 125 μL cell and complete medium (DMEM + GlutaMAX™-I supplemented with 10% fetal bovine serum) suspension per well, respectively. […]
HEK293 cells were seeded in 24-wells poly-D-lysine coated plates and transduced the subsequent day with OCT1 or OCT2 as described above. […] Following a second wash with 400 µL ice-cold HBSS-HEPES buffer, cells were lysed with 200 µL 50% (v/v) MeOH and 0.1% (v/v) formic acid (HCOOH) in water and samples were sent for quantification by mass spectrometry analysis (see “LC–MS/MS quantification of anti-malarials” section). […]
The affinity (KM) and maximum transport rate (Vmax) for OCT1 and OCT2 of PG were determined by analysing concentration-dependent uptake data from three independent experiments.
Import and export of PG and cycloguanil (CG) was assessed by single and double transduced HEK293 cells. […]

As a reminder, the IC50 is the concentration that gives 50% inhibition. With `O=C1Nc2ccc(Cl)cc2[C@@](C#CC2CC2)(C(F)(F)F)O1` [EFV, efavirenz], in data set [1], the IC50 was 22 µM. In data set [2], the Unbound in plasma entry is given as “about 0.22%” and the “Unbound maximum plasma concentration” value was 0.03 µM. The Maximum plasma concentration in data set [3] was 13 µM.

B1: human OCT2 (Homo sapiens) (protein)
chain: MPTTVDDVLEHGGEFHFFQKQMFFLLALLSATFAPIYVGIVFLGFTPDHRCRSPGVAELSLRCGWSPAEELNYTVPGPGPAGEASPRQCRRYEVDWNQSTFDCVDPLASLDTNRSRLPLGPCRDGWVYETPGSSIVTEFNLVCANSWMLDLFQSSVNVGFFIGSMSIGYIADRFGRKLCLLTTVLINAAAGVLMAISPTYTWMLIFRLIQGLVSKAGWLIGYILITEFVGRRYRRTVGIFYQVAYTVGLLVLAGVAYALPHWRWLQFTVSLPNFFFLLYYWCIPESPRWLISQNKNAEAMRIIKHIAKKNGKSLPASLQRLRLEEETGKKLNPSFLDLVRTPQIRKHTMILMYNWFTSSVLYQGLIMHMGLAGDNIYLDFFYSALVEFPAAFMIILTIDRIGRRYPWAASNMVAGAACLASVFIPGDLQWLKIIISCLGRMGITMAYEIVCLVNAELYPTFIRNLGVHICSSMCDIGGIITPFLVYRLTNIWLELPLMVFGVLGLVAGGLVLLLPETKGKALPETIEEAENMQRPRKNKEKMIYLQVQKLDIPLN
notes: host or cells: HEK293, baculovirus transduction (CMV promoter), transient
What is called Km is the substrate concentration at which the rate is half of its maximum. For the molecule B1, the Km in data set [4] was 9.0 µM.
